According to ChEMBL document CHEMBL4346749, “Design, synthesis and evaluation of novel, potent DNA alkylating agents and their antibody-drug conjugates (ADCs)” (Bioorg Med Chem Lett, 2019):

What was measured:
Type in all cases: functional, cell-based
KB = assay: Cytotoxicity against human KB cells assessed as reduction in cell viability after 5 days by WST-8 assay; conditions: 120 h
[1] = Cytotoxicity against human NCI-H2110 cells assessed as reduction in cell viability after 5 days by WST-8 assay; conditions: NCI-H2110, 120 h
NAMALVA = assay: Cytotoxicity against human NAMALWA cells assessed as reduction in cell viability after 5 days by WST-8 assay; conditions: 120 h

SMILES: COc1cc2c(cc1OCCCC(=O)Nc1cc(C(=O)Nc3ccc(-c4cc(C(=O)NCC(C)(C)SSC)n(C)c4)cc3)n(C)c1)N=C[C@@H]1Cc3ccccc3N1C2=O
- IC50 (KB): 0.01 nM
- IC50 [1]: 0.1 nM
- IC50 (NAMALVA): 0.03 nM

SMILES: COC(=O)CCNC(=O)c1cc2cc(NC(=O)c3cc(NC(=O)CCCOc4cc5c(cc4OC)C(=O)N4c6ccccc6C[C@H]4C=N5)cn3C)ccc2o1
- IC50 (KB): 0.2 nM
- IC50 [1]: 0.5 nM
- IC50 (NAMALVA): 0.06 nM

SMILES: COc1cc2c(cc1OCCCC(=O)Nc1cc(C(=O)Nc3ccc4sc(C(=O)NCC(C)(C)SSC)cc4c3)n(C)c1)N=C[C@@H]1Cc3ccccc3N1C2=O
- IC50 (KB): 0.08 nM
- IC50 [1]: 0.3 nM
- IC50 (NAMALVA): 0.01 nM

SMILES: COc1cc2c(cc1OCCCC(=O)Nc1cc(C(=O)Nc3ccc4sc(C(=O)NCC(C)(C)SSC)cc4c3)n(C)c1)N=C[C@@H]1Cc3ccccc3CN1C2=O
- IC50 (KB): 0.005 nM
- IC50 [1]: 0.03 nM
- IC50 (NAMALVA): 0.002 nM

SMILES: COC(=O)CCNC(=O)c1cc2cc(NC(=O)c3nc(NC(=O)CCCOc4cc5c(cc4OC)C(=O)N4c6ccccc6C[C@H]4C=N5)cn3C)ccc2s1
- IC50 (NAMALVA): 0.01 nM

SMILES: COC(=O)c1cc2cc(NC(=O)c3cc(NC(=O)CCCOc4cc5c(cc4OC)C(=O)N4c6ccccc6C[C@H]4C=N5)cn3C)ccc2s1
- IC50 (KB): 0.01 nM
- IC50 [1]: 0.05 nM
- IC50 (NAMALVA): 0.02 nM

SMILES: COc1cc2c(cc1OCCCC(=O)Nc1cn(C)c(C(=O)Nc3ccc(-c4cc(C(=O)NCC(C)(C)SSC)n(C)c4)cc3)n1)N=C[C@@H]1Cc3ccccc3CN1C2=O
- IC50 (KB): 0.006 nM
- IC50 [1]: 0.01 nM
- IC50 (NAMALVA): 0.001 nM

SMILES: COc1cc2c(cc1OCCCC(=O)Nc1cn(C)c(C(=O)Nc3ccc(-c4cc(C(=O)NCC(C)(C)SSC)n(C)c4)cc3)n1)N=C[C@@H]1Cc3ccccc3N1C2=O
- IC50 (KB): 0.04 nM
- IC50 [1]: 0.06 nM
- IC50 (NAMALVA): 0.01 nM

SMILES: COC(=O)CCNC(=O)c1cc2cc(NC(=O)c3cc(NC(=O)CCCOc4cc5c(cc4OC)C(=O)N4c6ccccc6C[C@H]4C=N5)cn3C)ccc2s1
- IC50 (KB): 0.04 nM
- IC50 [1]: 0.2 nM
- IC50 (NAMALVA): 0.03 nM

SMILES: COc1cc2c(cc1OCCCC(=O)Nc1cn(C)c(C(=O)Nc3ccc4sc(C(=O)NCC(C)(C)SSC)cc4c3)n1)N=C[C@@H]1Cc3ccccc3N1C2=O
- IC50 (NAMALVA): 0.03 nM

SMILES: COC(=O)CCNC(=O)c1cc2cc(NC(=O)c3nc(NC(=O)CCCOc4cc5c(cc4OC)C(=O)N4c6ccccc6C[C@H]4C=N5)cn3C)ccc2o1
- IC50 (KB): 0.08 nM
- IC50 [1]: 0.5 nM
- IC50 (NAMALVA): 0.06 nM

SMILES: COc1cc2c(cc1OCCCC(=O)Nc1nc(C(=O)Nc3ccc(NC(=O)CCC(C)(C)SSC)cc3)cs1)N=C[C@@H]1Cc3ccccc3N1C2=O
- IC50 (KB): 0.1 nM
- IC50 [1]: 0.6 nM
- IC50 (NAMALVA): 0.03 nM

SMILES: COc1cc2c(cc1OCCCC(=O)Nc1cn(C)c(C(=O)Nc3ccc4sccc4c3)n1)N=C[C@@H]1Cc3ccccc3N1C2=O
- IC50 (KB): 0.04 nM
- IC50 [1]: 0.08 nM
- IC50 (NAMALVA): 0.02 nM

SMILES: COc1cc2c(cc1OCCCC(=O)Nc1cn(C)c(C(=O)Nc3ccc(N)cc3)n1)N=C[C@@H]1Cc3ccccc3N1C2=O
- IC50 (KB): 0.2 nM
- IC50 [1]: 0.4 nM
- IC50 (NAMALVA): 0.06 nM

SMILES: COc1cc2c(cc1OCCCC(=O)Nc1cn(C)c(C(=O)Nc3ccc(NC(=O)CCC(C)(C)SSC)cc3)n1)N=C[C@@H]1Cc3ccccc3N1C2=O
- IC50 (KB): 0.03 nM
- IC50 [1]: 0.4 nM
- IC50 (NAMALVA): 0.03 nM
